Activity data for three compounds are collected here from ChEMBL document CHEMBL1944561, “Discovery and SAR exploration of a novel series of imidazo[4,5-b]pyrazin-2-ones as potent and selective mTOR kinase inhibitors” (Bioorg Med Chem Lett, 2011).

Assay [1] has as its target Homeodomain-interacting protein kinase 1 (Homo sapiens) (UniProt Q86Z02). As to the kind of experiment: Inhibition of HIPK1 assessed as activity remaining at 10 uM.
Assay [2] has as its target T1, Aurora kinase A (Homo sapiens) (UniProt O14965).
T1 sequence (whole entry): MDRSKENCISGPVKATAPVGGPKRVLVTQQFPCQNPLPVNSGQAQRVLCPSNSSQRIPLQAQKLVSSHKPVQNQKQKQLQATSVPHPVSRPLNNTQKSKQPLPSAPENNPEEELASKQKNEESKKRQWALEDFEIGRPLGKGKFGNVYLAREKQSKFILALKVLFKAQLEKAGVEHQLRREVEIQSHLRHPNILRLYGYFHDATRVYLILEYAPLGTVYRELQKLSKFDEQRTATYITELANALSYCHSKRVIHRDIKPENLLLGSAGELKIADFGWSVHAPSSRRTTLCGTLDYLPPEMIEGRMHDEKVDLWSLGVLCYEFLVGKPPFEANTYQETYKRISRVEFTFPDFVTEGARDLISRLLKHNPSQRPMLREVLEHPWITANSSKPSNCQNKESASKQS
As to the kind of experiment: Inhibition of Aurora-A assessed as activity remaining at 10 uM.

Assay [3] deals with T2, Serine/threonine-protein kinase TBK1 (Homo sapiens) (UniProt Q9UHD2).
T2 sequence (whole entry): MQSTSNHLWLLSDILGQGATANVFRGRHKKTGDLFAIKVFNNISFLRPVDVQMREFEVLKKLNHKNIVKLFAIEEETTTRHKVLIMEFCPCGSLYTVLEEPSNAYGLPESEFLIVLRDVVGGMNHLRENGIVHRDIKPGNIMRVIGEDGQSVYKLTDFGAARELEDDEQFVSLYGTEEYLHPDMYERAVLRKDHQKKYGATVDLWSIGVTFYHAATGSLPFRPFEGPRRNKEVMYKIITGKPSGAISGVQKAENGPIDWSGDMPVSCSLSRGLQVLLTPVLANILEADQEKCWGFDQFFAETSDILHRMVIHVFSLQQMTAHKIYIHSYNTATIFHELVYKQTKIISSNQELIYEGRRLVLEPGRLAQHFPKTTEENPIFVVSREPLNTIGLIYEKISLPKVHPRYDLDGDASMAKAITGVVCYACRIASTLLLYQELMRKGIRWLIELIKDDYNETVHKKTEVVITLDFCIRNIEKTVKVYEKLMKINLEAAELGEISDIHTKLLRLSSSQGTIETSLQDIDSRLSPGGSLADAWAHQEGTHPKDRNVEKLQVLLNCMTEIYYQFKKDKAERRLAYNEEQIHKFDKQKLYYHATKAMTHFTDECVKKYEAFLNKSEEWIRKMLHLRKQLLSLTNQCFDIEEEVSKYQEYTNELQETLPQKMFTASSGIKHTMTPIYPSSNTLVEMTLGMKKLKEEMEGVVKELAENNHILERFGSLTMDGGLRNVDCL
Nature of the assay: Inhibition of TBK1 assessed as activity remaining at 10 uM.

Assay [4] concerns the target T3, Serine/threonine-protein kinase Sgk1 (Homo sapiens) (UniProt O00141).
T3 sequence (whole entry): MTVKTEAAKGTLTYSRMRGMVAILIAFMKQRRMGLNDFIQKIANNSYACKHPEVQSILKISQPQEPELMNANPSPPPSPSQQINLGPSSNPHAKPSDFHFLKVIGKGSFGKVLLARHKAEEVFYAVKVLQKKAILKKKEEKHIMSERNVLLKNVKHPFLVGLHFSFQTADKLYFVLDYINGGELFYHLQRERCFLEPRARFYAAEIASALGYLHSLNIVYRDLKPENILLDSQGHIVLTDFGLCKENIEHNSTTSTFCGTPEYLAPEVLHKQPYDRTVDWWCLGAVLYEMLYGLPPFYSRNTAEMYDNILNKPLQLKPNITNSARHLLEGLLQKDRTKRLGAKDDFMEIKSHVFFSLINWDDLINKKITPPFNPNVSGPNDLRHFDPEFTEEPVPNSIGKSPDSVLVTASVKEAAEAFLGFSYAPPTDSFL
Nature of the assay: Inhibition of SGK assessed as activity remaining at 10 uM.

Assay [5] concerns the target Tyrosine-protein kinase Yes (Homo sapiens) (UniProt P07947). Nature of the assay: Inhibition of Yes assessed as activity remaining at 10 uM.
In assay [6] the target is Serine/threonine-protein kinase PLK3 (Homo sapiens) (UniProt Q9H4B4). Nature of the assay: Inhibition of Plk3 assessed as activity remaining at 10 uM.
Chain of Serine/threonine-protein kinase PLK3 (Homo sapiens) (Q9H4B4 whole entry, looked up): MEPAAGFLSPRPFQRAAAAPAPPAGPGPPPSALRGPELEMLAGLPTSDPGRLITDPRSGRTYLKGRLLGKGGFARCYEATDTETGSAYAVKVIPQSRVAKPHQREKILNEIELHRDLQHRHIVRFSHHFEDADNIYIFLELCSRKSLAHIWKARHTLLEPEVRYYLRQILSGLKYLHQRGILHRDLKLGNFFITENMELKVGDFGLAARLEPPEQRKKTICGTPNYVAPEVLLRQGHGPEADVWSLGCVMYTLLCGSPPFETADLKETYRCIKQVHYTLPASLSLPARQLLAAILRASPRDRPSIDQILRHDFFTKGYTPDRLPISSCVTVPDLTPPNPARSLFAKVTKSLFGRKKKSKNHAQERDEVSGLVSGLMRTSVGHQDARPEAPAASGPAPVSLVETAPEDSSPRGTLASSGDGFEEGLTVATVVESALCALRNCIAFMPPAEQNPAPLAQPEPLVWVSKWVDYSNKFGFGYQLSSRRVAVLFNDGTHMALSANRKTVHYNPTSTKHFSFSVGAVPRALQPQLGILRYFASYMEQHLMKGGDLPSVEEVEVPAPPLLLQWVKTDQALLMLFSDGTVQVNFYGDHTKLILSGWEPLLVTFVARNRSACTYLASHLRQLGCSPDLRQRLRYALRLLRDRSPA
Assay [7] addresses MAP kinase-activated protein kinase 2 (Homo sapiens) (UniProt P49137). As to the kind of experiment: Inhibition of MAPKAP-K2 assessed as activity remaining at 10 uM.
In assay [8] the target is Fibroblast growth factor receptor 1 (Homo sapiens) (UniProt P11362). Nature of the assay: Inhibition of FGFR1 assessed as activity remaining at 10 uM.
Chain of Fibroblast growth factor receptor 1 (Homo sapiens) (P11362 22-822 limits assumed): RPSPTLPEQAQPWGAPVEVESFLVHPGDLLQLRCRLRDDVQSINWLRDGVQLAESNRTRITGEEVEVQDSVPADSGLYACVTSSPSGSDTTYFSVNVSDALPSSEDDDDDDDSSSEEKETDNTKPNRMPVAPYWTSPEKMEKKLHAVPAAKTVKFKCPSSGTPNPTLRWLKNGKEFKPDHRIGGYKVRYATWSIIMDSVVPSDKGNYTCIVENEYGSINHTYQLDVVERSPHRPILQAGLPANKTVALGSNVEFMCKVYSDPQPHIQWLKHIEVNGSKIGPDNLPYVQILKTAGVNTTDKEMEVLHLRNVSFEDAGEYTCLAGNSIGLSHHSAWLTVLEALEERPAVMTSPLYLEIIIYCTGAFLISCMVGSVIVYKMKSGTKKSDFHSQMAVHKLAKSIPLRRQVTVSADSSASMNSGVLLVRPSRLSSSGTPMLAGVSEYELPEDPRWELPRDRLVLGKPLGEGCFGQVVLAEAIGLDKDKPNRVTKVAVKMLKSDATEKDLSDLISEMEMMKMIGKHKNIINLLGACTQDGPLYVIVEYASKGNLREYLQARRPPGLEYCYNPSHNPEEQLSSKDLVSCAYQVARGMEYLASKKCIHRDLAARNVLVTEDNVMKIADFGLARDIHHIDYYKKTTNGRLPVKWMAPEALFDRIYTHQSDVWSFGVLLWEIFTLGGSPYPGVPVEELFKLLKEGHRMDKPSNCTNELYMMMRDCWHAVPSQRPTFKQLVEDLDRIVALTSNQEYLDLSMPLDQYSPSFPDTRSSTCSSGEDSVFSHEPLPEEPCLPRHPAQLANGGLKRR
For assay [9], the target named is Tyrosine-protein kinase SYK (Homo sapiens) (UniProt P43405). As to the kind of experiment: Inhibition of Syk assessed as activity remaining at 10 uM.

The structures appear in SMILES notation.

Chain of Homeodomain-interacting protein kinase 1 (Homo sapiens) (Q86Z02 whole entry, looked up): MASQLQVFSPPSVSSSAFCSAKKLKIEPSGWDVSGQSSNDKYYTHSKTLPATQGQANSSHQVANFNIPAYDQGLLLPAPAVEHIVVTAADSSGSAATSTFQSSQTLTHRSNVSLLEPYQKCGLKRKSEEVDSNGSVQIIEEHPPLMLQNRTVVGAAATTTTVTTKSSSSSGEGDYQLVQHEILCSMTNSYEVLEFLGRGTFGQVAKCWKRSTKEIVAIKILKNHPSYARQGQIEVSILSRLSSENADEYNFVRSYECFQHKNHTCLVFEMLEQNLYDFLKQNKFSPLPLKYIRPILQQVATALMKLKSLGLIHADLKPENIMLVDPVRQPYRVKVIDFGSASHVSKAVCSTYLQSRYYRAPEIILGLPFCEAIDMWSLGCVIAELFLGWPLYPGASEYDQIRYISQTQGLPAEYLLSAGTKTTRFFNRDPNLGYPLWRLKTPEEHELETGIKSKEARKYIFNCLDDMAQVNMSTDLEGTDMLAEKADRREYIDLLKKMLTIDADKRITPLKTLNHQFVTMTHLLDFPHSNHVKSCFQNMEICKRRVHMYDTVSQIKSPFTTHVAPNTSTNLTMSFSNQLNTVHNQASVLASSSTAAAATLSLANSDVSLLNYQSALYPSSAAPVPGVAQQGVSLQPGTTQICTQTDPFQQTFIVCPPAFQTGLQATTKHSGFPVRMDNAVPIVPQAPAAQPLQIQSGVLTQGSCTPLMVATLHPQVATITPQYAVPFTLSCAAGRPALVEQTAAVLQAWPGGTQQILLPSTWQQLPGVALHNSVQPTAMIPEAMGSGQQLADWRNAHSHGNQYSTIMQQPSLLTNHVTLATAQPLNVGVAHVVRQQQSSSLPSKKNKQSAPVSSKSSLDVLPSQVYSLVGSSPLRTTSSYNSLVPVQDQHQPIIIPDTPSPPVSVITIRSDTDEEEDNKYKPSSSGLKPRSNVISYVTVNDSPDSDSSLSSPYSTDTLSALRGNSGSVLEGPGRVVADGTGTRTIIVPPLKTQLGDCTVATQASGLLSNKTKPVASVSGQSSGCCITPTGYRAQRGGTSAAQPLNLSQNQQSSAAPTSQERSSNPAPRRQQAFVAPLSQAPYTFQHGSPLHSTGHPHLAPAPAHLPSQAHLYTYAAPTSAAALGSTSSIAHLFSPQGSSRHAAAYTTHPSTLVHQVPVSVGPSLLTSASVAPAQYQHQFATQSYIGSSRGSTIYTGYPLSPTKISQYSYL
Chain of Tyrosine-protein kinase Yes (Homo sapiens) (P07947 2-543 limits assumed): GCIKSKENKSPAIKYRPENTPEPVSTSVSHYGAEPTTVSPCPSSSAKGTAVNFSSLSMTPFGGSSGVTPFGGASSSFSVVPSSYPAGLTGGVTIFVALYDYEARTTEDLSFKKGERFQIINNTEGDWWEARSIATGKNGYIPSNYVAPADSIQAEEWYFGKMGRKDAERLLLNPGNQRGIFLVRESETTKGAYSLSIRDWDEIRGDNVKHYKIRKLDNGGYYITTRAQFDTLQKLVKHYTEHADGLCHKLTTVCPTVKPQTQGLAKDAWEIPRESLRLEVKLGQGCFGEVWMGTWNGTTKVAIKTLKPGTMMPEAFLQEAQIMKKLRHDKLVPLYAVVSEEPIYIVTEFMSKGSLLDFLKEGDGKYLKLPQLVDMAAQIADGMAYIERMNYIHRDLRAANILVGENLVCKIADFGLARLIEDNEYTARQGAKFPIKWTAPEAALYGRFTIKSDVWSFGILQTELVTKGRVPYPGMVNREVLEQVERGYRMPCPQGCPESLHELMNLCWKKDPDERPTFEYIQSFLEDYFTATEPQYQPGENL
Chain of MAP kinase-activated protein kinase 2 (Homo sapiens) (P49137 whole entry, looked up): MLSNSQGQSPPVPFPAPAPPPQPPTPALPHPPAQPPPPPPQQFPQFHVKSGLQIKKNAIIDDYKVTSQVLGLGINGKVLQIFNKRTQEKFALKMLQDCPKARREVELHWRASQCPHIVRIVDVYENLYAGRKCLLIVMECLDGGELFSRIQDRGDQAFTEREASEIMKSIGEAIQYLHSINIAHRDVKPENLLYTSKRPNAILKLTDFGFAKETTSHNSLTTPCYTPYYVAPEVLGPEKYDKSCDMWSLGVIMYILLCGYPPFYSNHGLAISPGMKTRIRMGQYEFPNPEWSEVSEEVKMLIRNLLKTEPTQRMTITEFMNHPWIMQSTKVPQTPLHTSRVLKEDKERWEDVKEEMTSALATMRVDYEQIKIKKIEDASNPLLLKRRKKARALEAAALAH

Regarding `CC(C)(O)c1ccc(-c2cnc3[nH]c(=O)n(CC4CCCCC4)c3n2)cc1`, the Activity in assay [1] was 94%; in [2], 58%; in [3], 91%; in [4] it was 96%; in assay [5] it was 74%; in [6], 89%. The Activity in assay [7] is 99%; in [8], 94%; in assay [9] it was 95%.

Regarding `O=c1[nH]c2ncc(-c3ccc4[nH]cnc4c3)nc2n1CC1CCCCC1`, the Activity was 84% in assay [1]; 32% in [2]; 77% in [3]; 53% in assay [4]; 73% in assay [5]; 94% in assay [6]. Besides, the Activity in assay [7] stood at 89%; in [8], 63%; in [9] it was 40%.

Turning to `O=c1[nH]c2ncc(-c3ccc(-c4nc[nH]n4)cc3)nc2n1CC1CCOCC1`, the Activity in [1] came out at 91%; in assay [2], 79%; in assay [3], 94%; in [4], 97%; in assay [5] it was 87%; in assay [6], 108%. Also, the Activity in [7] was found to be 93%; in [8], 93%; in assay [9], 48%.
